What was measured:
Type in all cases: cell-based, human
MIRLET7BHG promoter = test: Bisulfite sequencing of let-7 host gene promoter; conditions: bladder cancer cells
Procedure: Cell pellets were digested with 1% sodium dodecyl sulfate and 50 μg/mL proteinase K (Roche, Nutley, USA) at 48° C. overnight. Isolation of genomic DNA from cell lines was performed with the phenol-chloroform extraction protocol followed by ethanol precipitation. Bisulfite treatment was conducted using an EpiTect Bisulfite Kit (QIAGEN, Valencia, USA), and was subsequently amplified via PCR using primers as shown in the following table. PCR products were purified using the QIAquick Gel Extraction kit (Qiagen), and sequenced by Genewiz DNA sequencing service (Genewiz, South Plainfield, USA). The data were analyzed using the Sequence Scanner v1.0 software (Life technologies). A methylation frequency of ≥50% of total CpG sites within the amplified region was considered “methylation-positive”. For demethylation, cells (1×10^6/T-75 flask) were treated with […] of the demethylating agent 5-Aza-dC (Sigma) dissolved in 50% acetic acid or were mock-treated with phosphate buffered saline (PBS) including the same amount of acetic acid every 24 hours for 5 days. When combined with the histone deacetylase inhibitor TSA (Sigma), 300 nmol/L TSA was added to the medium for the final 24 hours.

[1] = test system: promoters of miR-126, miR-296, and miR-200c; test: Bisulfite sequencing of miRNA promoters; conditions: spheroid cells
urothelial CSCs = test: Sphere formation assay (CSC properties)
Procedure: Sphere formation was induced by culturing cells (2×10^4/well) in DMEM/Ham's F12 50/50 Mix (Mediatech) supplemented with B-27 (Life Technologies), 20 ng/mL FGF-basic (Peprotech), 20 ng/mL EGF (Peprotech). Cell culture was performed in ultra-low attachment 6 well plates (Corning, Lowell, USA) for 10 days. The medium was replaced every other day. Sphere formation was evaluated using the inverted phase-contrast microscope, and single sphere with a diameter larger than 100 μm was counted using NIS-Elements Microscope Imaging Software. To redifferentiate spheres, spheres were plated in standard growth medium with 10% FBS in dishes supporting cell attachment, and incubated for 7 days. For self-renewal assay, primary spheres were collected by gentle centrifugation (5 min at 400×g), dissociated with Stempro Accutase Cell Dissociation Reagent (Life Technologies), and mechanically disrupted with a pipette. The cell suspension was sieved through 40 μm cell strainer cap filter to achieve a single-cell suspension, and then equal numbers of alive cells were plated in ultralow attachment plates to generate the second spheres. Again, spheres were counted on day 14 and digested to generate the third Spheres. All the experiments were performed in triplicate and repeated at least three times.

SOX2 = SOX2 expression by western blotting / flow cytometry
Procedure: Whole cell lysates were extracted using RIPA buffer (Thermo Scientific) supplemented with 10 μL/mL Halt™ Protease Inhibitor Cocktail Kit (Life Technologies) and 30 μL/mL Halt™ Phosphatase Inhibitor Cocktail Kit (Life Technologies). The protein concentrations were determined using a Pierce™ BCA Protein Assay Kit (Life Technologies), and the protein were separated on NuPAGE® 4-12% Bis-Tris Gel (Life Technologies) according to the manufacturer's protocol. COX2 (D5H5), NANOG (D73G4), OCT4 (D7O5Z), CD133 (A3G6K), Snail (C15D3), ZEB1 (D80D3), Vimentin (D21H3), CDH2 (D4R1H), CDH1 (24E10), p-EGFR (D7A5), EGFR (D38B1), p-AKT (D9E), AKT (cat #, 9272), p-ERK (D13.14.4E), ERK (137F5), p-YAP1 (D9W2I), p-Src (cat #, 2101), Src (36D10), DNMT1 (D63A6), DNMT3A (D23G1), and DNMT3B (D7O7O) antibodies were obtained from Cell Signaling Technology (Danvers, Mass., USA), except for SOX2 (EPR3131; Abcam, Cambridge, USA), YAP1 (ab52771; Abcam), CD24 (cat #, AF5247-SP; R&D Systems, Minneapolis USA) and β-actin (A2228; Sigma-Aldrich). Secondary horseradish peroxidase (HRP)-conjugated antibodies were obtained from Cell Signaling Technology, and chemiluminescent detection of HRP-labeled antibodies was performed using Amersham ECL Prime Western Blotting Detection Reagent (GE Healthcare, Piscataway, USA). As loading control, β-actin was used.
For extracellular staining, cells (1×10^6/100 μL stain buffer) were incubated with PE-Vio770-conjugated anti-human CD133 (293C3; Miltenyi Biotec, Auburn, USA) or PE-conjugated anti-human CD24 antibody (cat #, 560991; BD Biosciences) for 30 min at 4° C. in dark. PE-Vio770-conjugated Isotype (cat #, 130-098-563; Miltenyi Biotec) and PE-conjugated IgG2a, κ Isotype (cat #, 555574; BD Biosciences) were used as control for CD133 and CD24 staining, respectively. Staining for intracellular SOX2 was carried out using the BD Cytofix/Cytoperm Fixation/Permeabilization Kit (BD Biosciences) according to manufacturer's protocol. The cells were incubated with Alexa Fluor 647-conjugated anti-SOX2 antibody (cat #, 560302; BD Biosciences) for 40 min at 4° C. in dark. Alexa Fluor 647-conjugated anti-IgG2a, κ Isotype (cat #, 558053; BD Biosciences) was used as control. Data were acquired on a BD FACSCalibur flow cytometer (BD Biosciences) using BD CellQuest Pro software (BD Biosciences) and analyzed with FlowJo software v10.1 (Tree Star, Ashland, USA).

[2] = agent alone, bladder cancer cells

Cc1ccc(-c2cc(C(F)(F)F)nn2-c2ccc(S(N)(=O)=O)cc2)cc1 [celecoxib, Celecoxib]
promoter methylation of the let-7 host gene (MIRLET7BHG promoter): demethylated | promoter methylation of miRNAs (miR-126, miR-296, miR-200c) [1]: demethylated | sphere formation (urothelial CSCs; COX2 inhibitor added to erlotinib, basal-type cells, 72 hours): impaired | sphere formation / sphere-forming ability (urothelial CSCs; [2]): repressed | SOX2 expression (SOX2; COX2 inhibitor added to erlotinib, basal-type cells): impaired | SOX2 expression (SOX2; [2]): repressed
